Assay results taken from patent US11555012B2 (Nimbus Artemis, Inc., priority 2018, dated 2023).
pIC50: −log10 of the molar value.

target: ACL (Homo sapiens (Human), UniProt P53396); experiment: ADP-Glo Assay; details: not given
Sequence (P53396 other isoform, or with tags, fused parts or gaps isoform P53396-2): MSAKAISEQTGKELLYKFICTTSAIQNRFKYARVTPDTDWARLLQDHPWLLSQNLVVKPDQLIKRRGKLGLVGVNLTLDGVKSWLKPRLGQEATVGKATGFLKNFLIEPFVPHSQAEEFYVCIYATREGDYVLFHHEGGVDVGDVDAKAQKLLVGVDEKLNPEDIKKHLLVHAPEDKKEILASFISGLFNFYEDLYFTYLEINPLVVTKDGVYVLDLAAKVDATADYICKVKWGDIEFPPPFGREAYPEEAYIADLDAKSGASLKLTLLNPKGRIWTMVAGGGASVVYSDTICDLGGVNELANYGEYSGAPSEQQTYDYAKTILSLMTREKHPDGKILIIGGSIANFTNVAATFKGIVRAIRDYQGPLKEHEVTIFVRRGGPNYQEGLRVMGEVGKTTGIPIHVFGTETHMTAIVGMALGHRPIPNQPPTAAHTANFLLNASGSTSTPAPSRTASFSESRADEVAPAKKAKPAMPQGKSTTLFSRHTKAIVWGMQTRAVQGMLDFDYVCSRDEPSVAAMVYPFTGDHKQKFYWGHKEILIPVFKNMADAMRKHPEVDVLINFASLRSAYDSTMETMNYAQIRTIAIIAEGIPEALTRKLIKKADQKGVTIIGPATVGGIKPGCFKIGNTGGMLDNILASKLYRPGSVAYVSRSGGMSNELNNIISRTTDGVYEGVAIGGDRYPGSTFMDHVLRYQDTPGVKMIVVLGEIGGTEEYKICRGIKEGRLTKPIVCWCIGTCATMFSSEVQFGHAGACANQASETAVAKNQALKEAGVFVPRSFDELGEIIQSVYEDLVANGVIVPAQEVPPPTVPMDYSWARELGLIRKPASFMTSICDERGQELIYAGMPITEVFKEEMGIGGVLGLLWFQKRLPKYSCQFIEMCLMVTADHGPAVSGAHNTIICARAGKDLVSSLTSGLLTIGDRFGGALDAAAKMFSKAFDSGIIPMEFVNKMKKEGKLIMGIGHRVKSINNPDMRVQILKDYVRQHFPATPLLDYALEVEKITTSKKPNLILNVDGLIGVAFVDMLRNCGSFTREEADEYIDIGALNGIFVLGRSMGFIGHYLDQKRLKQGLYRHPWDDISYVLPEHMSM

| Compound | pIC50 |
| --- | --- |
| O=C(O)c1ccc(-c2ccccc2)cc1NS(=O)(=O)c1cncc(Cl)c1 [I-247, 3-((5-chloropyridine)-3-sulfonamido)-[1,1′-biphenyl]-4-carboxylic Acid] | 4.70 to 6.30 |
| COc1ccc(-c2ccccc2)cc1NS(=O)(=O)c1cc(Cl)cc(C#N)c1 [I-422, 3-chloro-5-cyano-N-(2-methoxy-5-phenylphenyl)benzene-1-sulfonamide] | < 4.70 |
| COc1ccc(-c2ccccc2)cc1NS(=O)(=O)c1cc(-c2nn[nH]n2)ccc1OC [I-442, 2-methoxy-N-(2-methoxy-5-phenylphenyl)-5-(2H-1,2,3,4-tetrazol-5-yl)benzene-1-sulfonamide] | < 4.70 |
| COc1ccc(-c2cccnc2)cc1NS(=O)(=O)c1cc(C(=O)O)cc(Cl)c1O [I-427, 3-chloro-4-hydroxy-5-(N-(2-methoxy-5-(pyridin-3-yl)phenyl)sulfamoyl)benzoic Acid] | < 4.70 |
| O=C(O)c1ccc(-c2ccccc2)cc1NS(=O)(=O)c1ccc2[nH]ncc2c1 [I-301, 3-(1H-indazole-5-sulfonamido)-[1,1′-biphenyl]-4-carboxylic Acid] | 4.70 to 6.30 |
| O=S(=O)(Nc1cc(-c2ccccc2)ccc1F)c1cc(Cl)cc2ccoc12 [I-223, 5-chloro-N-[4-fluoro-[1,1-biphenyl]-3-yl]-1-benzofuran-7-sulfonamide] | 4.70 to 6.30 |
| O=S(=O)(Nc1cc(-c2ccccc2)ccc1F)c1cc(Cl)ccc1O [I-30, 5-chloro-N-(2-fluoro-5-phenylphenyl)-2-hydroxybenzene-1-sulfonamide] | 4.70 to 6.30 |
| COc1ccc(-c2ccccc2)cc1N(Cc1ccccc1)S(=O)(=O)c1c(C)c(Cl)cc(Cl)c1OCc1ccccc1 [I-397, N-benzyl-2-(benzyloxy)-3,5-dichloro-N-(4-methoxy-[1,1′-biphenyl]-3-yl)-6-methylbenzenesulfonamide] | < 4.70 |
| Cn1ccc(Oc2c(Cl)cc(Cl)cc2S(=O)(=O)Nc2cc(-c3ccccc3)ccc2F)n1 [I-443, 3,5-dichloro-N-(4-fluoro-[1,1′-biphenyl]-3-yl)-2-((1-methyl-1H-pyrazol-3-yl)oxy)benzenesulfonamide] | < 4.70 |
| O=C(O)c1ccc(-c2ccccc2)cc1NS(=O)(=O)c1cccc(C(F)(F)F)n1 [I-312, 3-((6-(trifluoromethyl)pyridine)-2-sulfonamido)-[1,1′-biphenyl]-4-carboxylic Acid] | 4.70 to 6.30 |
| O=C(O)c1ccc(-c2ccccc2)cc1NS(=O)(=O)c1cccc(C(F)(F)F)c1 [I-292, 3-((3-(trifluoromethyl)phenyl)sulfonamido)-[1,1′-biphenyl]-4-carboxylic acid] | 4.70 to 6.30 |
| O=S(=O)(Nc1cc(-c2ccccc2)ccc1F)c1cc(Cl)cc(Cl)c1F [I-207, 3,5-dichloro-2-fluoro-N-[4-fluoro-[1,1-biphenyl]-3-yl]benzene-1-sulfonamide] | 4.70 to 6.30 |
| COc1ccc(-c2ccccc2)cc1NS(=O)(=O)c1cc(C(=O)N(C)C)cc(Cl)c1OC [I-434, 3-chloro-4-methoxy-5-(N-(4-methoxy-[1,1′-biphenyl]-3-yl)sulfamoyl)-N,N-dimethylbenzamide] | < 4.70 |
| O=S(=O)(Nc1cc(-c2ccccc2)ccc1F)c1cc(Cl)cc(Cl)c1OCC(F)(F)F [I-85, 3,5-dichloro-N-(2-fluoro-5-phenylphenyl)-2-(2,2,2-trifluoroethoxy)benzene-1-sulfonamide] | 4.70 to 6.30 |
| Cc1ccc(C(=O)O)c(NS(=O)(=O)c2cc(Cl)cc(Cl)c2)n1 [I-527, 2-((3,5-dichlorophenyl)sulfonamido)-6-methylnicotinic acid] | < 4.70 |
| O=S(=O)(Nc1cc(-c2ccccc2)c(F)cc1F)c1cc(Cl)ccc1F [I-156, 5-chloro-N-(4,6-difluoro-[1,1′-biphenyl]-3-yl)-2-fluorobenzenesulfonamide] | 4.70 to 6.30 |
| O=C(O)c1cc(NC(=O)c2cc(F)cc3nc[nH]c23)ccc1Cl [I-535, 2-chloro-5-(5-fluoro-1H-benzo[d]imidazole-7-carboxamido)benzoic acid] | < 4.70 |
| O=S(=O)(NC1(c2ccc(F)cc2)CC1)c1cc(Cl)cc(Cl)c1O [I-180] | 4.70 to 6.30 |
| Cc1noc(C)c1S(=O)(=O)Nc1cc(-c2ccccc2)ccc1C(=O)O [I-351, 3-((3,5-dimethylisoxazole)-4-sulfonamido)-[1,1′-biphenyl]-4-carboxylic Acid] | 4.70 to 6.30 |
| COc1ccc(-c2ccccc2)cc1NS(=O)(=O)c1cc(Cl)cc(Cl)c1F [I-394, 3,5-dichloro-2-fluoro-N-[4-methoxy-[1,1-biphenyl]-3-yl]benzene-1-sulfonamide] | < 4.70 |
| O=S(=O)(NC1CCN(c2ccccc2)C1)c1cc(Cl)cc(Cl)c1O (stereo not drawn) [I-183] | 4.70 to 6.30 |
| O=S(=O)(Nc1cnn(-c2ccccc2)c1)c1cc(Cl)cc(Cl)c1O [I-170] | 4.70 to 6.30 |
| N#Cc1cc(Cl)cc(S(=O)(=O)Nc2cc(-c3ccccc3)c(F)cc2F)c1 [I-75, 3-chloro-5-cyano-N-(2,4-difluoro-5-phenylphenyl) benzene-1-sulfonamide] | 4.70 to 6.30 |

| Compound | pIC50 |
| --- | --- |
| O=C(O)c1cc(Cl)ccc1NS(=O)(=O)c1cc(Cl)cc(Cl)c1 [I-343, 5-chloro-2-((3,5-dichlorophenyl)sulfonamido)benzoic Acid] | 4.70 to 6.30 |
| COc1ccc(C(=O)OC2CC2)cc1NS(=O)(=O)c1cc(Cl)cc(Cl)c1O [I-411, cyclopropyl 3-((3,5-dichloro-2-hydroxyphenyl)sulfonamido)-4-methoxybenzoate] | < 4.70 |
| CC(C)(C)OC(=O)COc1ccc(-c2ccccc2)cc1NS(=O)(=O)c1cc(C(F)(F)F)cc(Cl)c1O [I-265, tert-butyl 2-([3-[3-chloro-2-hydroxy-5-(trifluoromethyl)benzenesulfonamido]-[1,1-biphenyl]-4-yl]oxy)acetate] | 4.70 to 6.30 |
| COC(=O)c1cc(Cl)cc(S(=O)(=O)Nc2cc(-c3ccccc3)ccc2OC)c1OC [I-435, Methyl 5-chloro-2-methoxy-3-(N-(4-methoxy-[1,1′-biphenyl]-3-yl)sulfamoyl)benzoate] | < 4.70 |
| O=S(=O)(Nc1cccc(-n2nccn2)c1)c1cc(Cl)cc(Cl)c1O [I-177] | 4.70 to 6.30 |
| CC(C)(C)Cc1nc2cc(NS(=O)(=O)c3cc(Cl)cc(Cl)c3O)ccc2o1 [I-172] | 4.70 to 6.30 |
| COc1ccc(-c2ccccc2)cc1NS(=O)(=O)c1cccc(-c2nnn(C)n2)c1 [I-436, N-(2-methoxy-5-phenylphenyl)-3-(2-methyl-2H-1,2,3,4-tetrazol-5-yl)benzene-1-sulfonamide] | < 4.70 |
| O=S(=O)(Nc1cc(-c2ccccc2)ccc1F)c1cc(-c2nn[nH]n2)ccc1F [I-424, 2-fluoro-N-(2-fluoro-5-phenylphenyl)-5-(2H-1,2,3,4-tetrazol-5-yl)benzene-1-sulfonamide] | < 4.70 |
| COc1ccc(-c2ccccc2)cc1NS(=O)(=O)c1cc(CC(=O)O)cc(Cl)c1OC [I-439, 2-[3-chloro-4-methoxy-5-[(2-methoxy-5-phenylphenyl)sulfamoyl]phenyl]acetic Acid] | < 4.70 |
| COc1cccc(CCNS(=O)(=O)c2cc(Cl)cc(Cl)c2O)c1 [I-188] | 4.70 to 6.30 |
| O=C(O)c1ccc(-c2ccccc2)cc1NS(=O)(=O)c1ccccc1 [I-225, 3-(phenylsulfonamido)-[1,1′-biphenyl]-4-carboxylic Acid] | 4.70 to 6.30 |
| CN(C)C(=O)Oc1c(Cl)cc(C(=O)N2CCC2)cc1S(=O)(=O)Nc1cc(-c2ccccc2)c(F)cc1F [I-209, 4-(azetidine-1-carbonyl)-2-chloro-6-([4,6-difluoro-[1,1-biphenyl]-3-yl]sulfamoyl)phenyl N,N-dimethylcarbamate] | 4.70 to 6.30 |
| O=C(COc1c(Br)cc(Cl)cc1S(=O)(=O)N(Cc1ccccc1)c1cc(-c2ccccc2)ccc1F)OCc1ccccc1 [I-420, benzyl 2-(2-(N-benzyl-N-(4-fluoro-[1,1′-biphenyl]-3-yl)sulfamoyl)-6-bromo-4-chlorophenoxy)acetate] | < 4.70 |
| N#Cc1cc(S(=O)(=O)Nc2cc(-c3ccccc3)ccc2F)ccc1Cl [I-251] | 4.70 to 6.30 |
| COc1ccc(-c2ccccc2)cc1NS(=O)(=O)c1cc(C(=O)O)cc(Cl)c1OC [I-39, 3-chloro-4-methoxy-5-(N-(4-methoxy-[1,1′-biphenyl]-3-yl)sulfamoyl)benzoic Acid] | 4.70 to 6.30 |
| CC(C)n1ncc2cc(NS(=O)(=O)c3cc(Cl)cc(Cl)c3O)ccc21 [I-169] | 4.70 to 6.30 |
| CC(C)S(=O)(=O)Nc1ccc(S(=O)(=O)Nc2cc(-c3ccccc3)ccc2F)cc1F [I-524, 3-fluoro-N-(4-fluoro-[1,1′-biphenyl]-3-yl)-4-((1-methylethyl)sulfonamido)benzenesulfonamide] | < 4.70 |
| O=C1COc2cc(S(=O)(=O)Nc3cc(-c4ccccc4)ccc3F)c(Cl)cc2N1 [I-255] | 4.70 to 6.30 |
| CC(C)(C)C(=O)Oc1c(Cl)cc(C(=O)N2CCC2)cc1S(=O)(=O)Nc1cc(-c2ccccc2)c(F)cc1F [I-210, 4-(azetidine-1-carbonyl)-2-chloro-6-(N-(4,6-difluoro-[1,1′-biphenyl]-3-yl)sulfamoyl)phenyl Pivalate] | 4.70 to 6.30 |
| O=C(O)c1ccc(-c2ccccc2)cc1NS(=O)(=O)Cc1ccccc1 [I-257] | 4.70 to 6.30 |
| COCc1cc(Cl)cc(S(=O)(=O)Nc2cc(-c3ccccc3)ccc2C(=O)O)c1 [I-337] | 4.70 to 6.30 |
| O=S(=O)(Nc1cc(-c2ccccc2)ccc1O)c1cc(Cl)cc(Cl)c1 [I-224, 3,5-dichloro-N-(4-hydroxy-[1,1′-biphenyl]-3-yl)benzenesulfonamide] | 4.70 to 6.30 |
| O=S(=O)(Nc1cc(-c2ccccc2)ccc1F)c1cc(Cl)c(O)cc1O [I-54, 5-chloro-N-(2-fluoro-5-phenylphenyl)-2,4-dihydroxybenzene-1-sulfonamide] | 4.70 to 6.30 |

same assay, conditions: read-out: ACL-ADP-Glo (IC50); 3 nM ACL, 15 μM ATP, 3 μM CoA, 300 μM Citrate

| Compound | pIC50 |
| --- | --- |
| CN(C)C(=O)c1cc(Cl)c(O)c(S(=O)(=O)Nc2cc(-c3ccccc3)ccc2C(=O)O)c1 [I-518, 3-((3-chloro-5-(dimethylcarbamoyl)-2-hydroxyphenyl)sulfonamido)-[1,1′-biphenyl]-4-carboxylic Acid] | 4.70 to 6.30 |
| O=C(O)Cc1ccc(-c2ccccc2)cc1NS(=O)(=O)c1cc(Cl)cc(Cl)c1 [I-228, 2-(3-((3,5-dichlorophenyl)sulfonamido)-[1,1′-biphenyl]-4-yl)acetic Acid] | 4.70 to 6.30 |
